Data from patent US20070009544A1, “Anti-allergic complex molecules” (priority 1999, published 2007).
In brackets after ≈: the same amount, converted by molar mass. Numbered stars: 1 amine (or outer) side, 2 acyl side, 3 side chain; on linkers, the order of the positions; unused ones are H or OH. Square brackets hold non-standard residues; d marks the D form. Ends that are not written are not given here. Peptide text beside a SMILES is read from it. Phe(4-NH2) = Nc1ccc(C[C@H](N)C(=O)O)cc1; Suc = O=C(CCC(=O)[*:2])[*:1]

Assays:
[1] = system: purified rat peritoneal mast cells; test: Histamine secretion from intact mast cells incubated with peptide alone (secretagogue side effect); settings: for Secretagogue (histamine secretion following incubation of mast cell with different concentrations of each peptide): no allergen; for histamine secretion from mast cells on incubation with increasing concentrations of peptide alone: no additional allergen
[2] = system: purified rat peritoneal mast cells; type: cell-based; settings: for maximal inhibition of compound 48/80 induced histamine secretion: 600 μg/ml peptide, compound 48/80 concentration not given; for Inhibitor (extent of inhibition of histamine secretion from mast cells): Table 9
Experimental: 37° C. […] Each data point represents the average of duplicate measurements. The spontaneously released histamine was subtracted.
First, the effect of compound 48/80 on exocytosis from intact mast cells was determined. […] Histamine release was determined and is presented as the net secretion that is % of the total cellular histamine following subtraction of the spontaneously released histamine. Half-maximal release was obtained at 0.1 μg/ml while maximal release was obtained at 1-10 μg/ml. Accordingly, in order to analyze the potential of each peptide to block histamine secretion, histamine secretion was induced with 5 μg/ml compound 48/80, a concentration that induces a maximal histamine release, while the cells were incubated in the presence of increasing concentrations of each peptide.
In order to investigate the ability of these peptides to block allergen-induced exocytosis, the peptides were examined for their ability to block compound 48/80 induced histamine secretion from intact mast cells in vitro. Mast cells were incubated with different concentrations of each peptide, followed by induction of histamine secretion by compound 48/80.

[3] = system: abdominal skin of C.R rats; test: Rat skin test: intradermal injection of peptide, then intradermal compound 48/80 or vehicle, wheal area; type: in vivo; settings: for Mean Wheal Area ± STD, Compound 48/80: 0.5 hour before allergic induction; for Mean Wheal Area ± STD, Vehicle: 0.5 hour before, vehicle instead of compound 48/80
Experimental: The hair of the abdominal area of C.R rats was carefully removed with an electric clipper and a depilatory cream. In each animal the abdominal area was divided to six equal zones that were marked by pen. Each zone was either subjected to peptide treatment or served as a control. In the first set of experiments, the peptide was topically applied as follows: 36 μl of peptide solution at the indicated concentration (dissolved in 72% DMSO in saline) was applied on desired abdominal area. In the second set of experiments, the peptide was injected intradermally as follows: 20 μl of peptide solution at different concentrations (dissolved in 10% DMSO in saline) was injected intradermally to an indicated abdominal area using a 27-gauge sterile needle.
Skin tests were performed 0.5, 1 or 2 hours following application of the peptide. Skin tests were performed by injecting intradermally 20 μl of the allergen (0.1 mg/ml compound 48/80 dissolved in saline) or saline alone, into the center of each marked area on the abdominal skin using a 27-gauge sterile needle. The allergic response was monitored by outlining with a marker the wheals which developed in response to allergen or saline treatment.
To quantitate the skin test results, the marker signs were transferred onto paper with scotch tape. The areas of the wheals were outlined and calculated by a computerized planimeter (Hewlett-Packard), as previously described (Sussman et al., 1982).
Tables 10-16 presents the mean areas of the wheals, which developed in response to intradermal injection of each of the tested peptides, followed by either compound 48/80 or DDW injection applied after 0.5 or 1 hour. Two doses were tested for each peptide-20 and 200 μg (injection of 20 μl from a stock solution of 1 mg/ml or 10 mg/m respectively).
Skin tests on rats using compound 48/80 as the allergen assessed the ability of the peptides of the present invention to block allergic cutaneous reactions. The abdominal skin of the rats was subjected to peptide (indicated concentrations are listed in Tables 17A-17B below) or vehicle treatment (intradermal injection); the allergic response was induced by intradermal injection of compound 48/80 at various times; and the allergic response was quantified by calculating the area of the resultant allergic wheals.

[4] = incubation with different concentrations of each peptide, then induction of the allergic reaction

CC(C)C[C@H](NC(=O)CNC(=O)[C@H](CS)NC(=O)[C@H](CCC(=O)O)NC(=O)[C@H](CCCCN)NC(=O)[C@H](CC(C)C)NC(=O)[C@H](CC(N)=O)NC(=O)[C@H](CO)NC(=O)[C@H](CCCCN)NC(=O)[C@@H]1CCCN1C(=O)[C@H](C)NC(=O)[C@H](CC(C)C)NC(=O)[C@H](CC(C)C)NC(=O)[C@H](C)NC(=O)[C@H](CC(C)C)NC(=O)[C@H](CC(C)C)NC(=O)[C@@H](NC(=O)[C@H](C)NC(=O)[C@@H]1CCCN1C(=O)[C@H](CC(C)C)NC(=O)[C@H](CC(C)C)NC(=O)[C@H](C)NC(=O)[C@@H](NC(=O)[C@H](C)NC(=O)[C@H](C)NC(=O)CCC(=O)O)C(C)C)C(C)C)C(=O)N[C@@H](Cc1ccc(O)cc1)C(=O)O [WALL011] (Suc-AAVALLPAVLLALLAPKSNLKECGLY-OH; C-terminus assumed)
Secretagogue (histamine secretion following incubation of mast cell with different concentrations of each peptide) ([1]; Table 9, peptide alone): −
histamine secretion from mast cells on incubation with increasing concentrations of peptide alone [1]: did not result in histamine secretion
basal level of histamine secretion compared to control cells ([1]; peptide alone at 400-600 μg/ml): minor inhibition of the basal level of histamine secretion
IC50, compound 48/80 induced histamine secretion [2]: 160 µg/mL (≈ 58.1 µM)
maximal inhibition of compound 48/80 induced histamine secretion [2]: 87%
Inhibitor (extent of inhibition of histamine secretion from mast cells) [2, 4]: +++ (+++ Potent inhibitor (≧80% inhibition))

CC(C)C[C@H](NC(=O)CNC(=O)[C@H](CS)NC(=O)[C@H](CCC(=O)O)NC(=O)[C@H](CCCCN)NC(=O)[C@H](CC(C)C)NC(=O)[C@H](CC(N)=O)NC(=O)[C@H](CC(N)=O)NC(=O)[C@H](CCCCN)NC(=O)[C@@H]1CCCN1C(=O)[C@H](C)NC(=O)[C@H](CC(C)C)NC(=O)[C@H](CC(C)C)NC(=O)[C@H](C)NC(=O)[C@H](CC(C)C)NC(=O)[C@H](CC(C)C)NC(=O)[C@@H](NC(=O)[C@H](C)NC(=O)[C@@H]1CCCN1C(=O)[C@H](CC(C)C)NC(=O)[C@H](CC(C)C)NC(=O)[C@H](C)NC(=O)[C@@H](NC(=O)[C@H](C)NC(=O)[C@H](C)NC(=O)CCC(=O)O)C(C)C)C(C)C)C(=O)N[C@@H](Cc1ccc(N)cc1)C(=O)O [WALL014] (Suc-AAVALLPAVLLALLAPKNNLKECGL[Phe(4-NH2)]-OH; C-terminus assumed)
block of compound 48/80 induced allergic reaction in vivo, rat skin ([3]; intradermal peptide): effectively block the allergic response in vivo
Mean Wheal Area ± STD, Compound 48/80 ([3]; intradermal peptide 1 mg/ml): 108.1 ± 15.0 (n = 2) mm^2
Mean Wheal Area ± STD, Vehicle ([3]; intradermal peptide 1 mg/ml): 87.2 ± 1.9 (n = 2) mm^2
Mean Wheal Area ± STD, Compound 48/80 ([3]; intradermal peptide 10 mg/ml): 91.5 ± 34.9 (n = 2) mm^2
Mean Wheal Area ± STD, Vehicle ([3]; intradermal peptide 10 mg/ml): 100.1 ± 38.9 (n = 2) mm^2
reduction of compound 48/80 induced allergic reaction ([3]; intradermal peptide 0.5 hour before allergic induction): significantly reduced
reduction of compound 48/80 induced allergic reaction ([3]; intradermal peptide, lower dose or 1 hour before allergic induction): no significant inhibition
Secretagogue (histamine secretion following incubation of mast cell with different concentrations of each peptide) ([1]; Table 9, peptide alone): −
histamine secretion from mast cells on incubation with increasing concentrations of peptide alone [1]: did not result in histamine secretion
IC50, compound 48/80 induced histamine secretion [2]: 230 µg/mL (≈ 82.8 µM)
maximal inhibition of compound 48/80 induced histamine secretion [2]: 83%
Inhibitor (extent of inhibition of histamine secretion from mast cells) [2, 4]: +++ (+++ Potent inhibitor (≧80% inhibition))

AAVALLPAVLLALLAPKNNLKDCGLF [Peptide 5m]
Secretagogue (histamine secretion following incubation of mast cell with different concentrations of each peptide) ([1]; Table 1, peptide alone): +
histamine secretion from mast cells on incubation with increasing concentrations of peptide alone [1]: induced histamine secretion from mast cells in a concentration dependent manner

RQPKIWFPNRRKPWKKKNNLKECGLY [Peptide 3]
histamine secretion from mast cells on incubation with increasing concentrations of peptide alone [1]: induced histamine secretion from mast cells in a concentration dependent manner

AAVALLPAVLLALLAPKQNLKECGLY [WALL006]
Secretagogue (histamine secretion following incubation of mast cell with different concentrations of each peptide) ([1]; Table 9, peptide alone): −
histamine secretion from mast cells on incubation with increasing concentrations of peptide alone [1]: did not result in histamine secretion
IC50, compound 48/80 induced histamine secretion [2]: 560 µg/mL

AAVALLPAVLLALLAPKENLKDCGLF [Peptide 5]
Secretagogue (histamine secretion following incubation of mast cell with different concentrations of each peptide) ([1]; Table 1, peptide alone): −

AAVALLPAVLLALLAPLKDCGLF [Peptide 21]
histamine secretion from mast cells, peptide alone ([1]; at higher doses of 400 and 600 μg/ml): induced some histamine secretion

KAAVALLPAVLLALLAPKNNLKECGLY [Peptide 13]
Secretagogue (histamine secretion following incubation of mast cell with different concentrations of each peptide) ([1]; Table 1, peptide alone): +
histamine secretion from mast cells on incubation with increasing concentrations of peptide alone [1]: induced histamine secretion from mast cells in a concentration dependent manner

AAVALLPAVLLALLAAKNNLKECGLY [WALL004]
histamine secretion from mast cells, peptide alone ([1]; especially at a peptide concentration exceeding 200 μg/ml): moderate histamine secretion

VTVLALGALAGVGVGKENLKDCGLF [Peptide 4]
stimulatory effect on histamine secretion ([1]; peptide alone, concentration range of up to 400 p.g/ml (FIG. 1A)): hardly any stimulatory effect

KAAVALLPAVLLALLAPKNNLKDCGLF [Peptide 12]
Secretagogue (histamine secretion following incubation of mast cell with different concentrations of each peptide) ([1]; Table 1, peptide alone): +
histamine secretion from mast cells on incubation with increasing concentrations of peptide alone [1]: induced histamine secretion from mast cells in a concentration dependent manner

AAVALLPAVLLALLAPKNNLKESGLY [Peptide 25]
Secretagogue (histamine secretion following incubation of mast cell with different concentrations of each peptide) ([1]; Table 1, peptide alone): +
histamine secretion from mast cells on incubation with increasing concentrations of peptide alone [1]: induced histamine secretion from mast cells in a concentration dependent manner

RQPKIWFPNRRKPWKKKENLKDCGLF [Peptide 6]
histamine secretion from mast cells on incubation with increasing concentrations of peptide alone [1]: induced histamine secretion from mast cells in a concentration dependent manner

AAVALLPAVLLALLAPLKECGLY [Peptide 20]
Secretagogue (histamine secretion following incubation of mast cell with different concentrations of each peptide) ([1]; Table 1, peptide alone): −
histamine secretion from mast cells on incubation with increasing concentrations of peptide alone [1]: did not induce histamine secretion

CC(C)C[C@H](NC(=O)CNC(=O)[C@H](CS)NC(=O)[C@H](CC(=O)O)NC(=O)[C@H](CCCCN)NC(=O)[C@H](CC(C)C)NC(=O)[C@H](CC(N)=O)NC(=O)[C@H](CCC(=O)O)NC(=O)[C@H](CCCCN)NC(=O)[C@@H]1CCCN1C(=O)[C@H](C)NC(=O)[C@H](CC(C)C)NC(=O)[C@H](CC(C)C)NC(=O)[C@H](C)NC(=O)[C@H](CC(C)C)NC(=O)[C@H](CC(C)C)NC(=O)[C@@H](NC(=O)[C@H](C)NC(=O)[C@@H]1CCCN1C(=O)[C@H](CC(C)C)NC(=O)[C@H](CC(C)C)NC(=O)[C@H](C)NC(=O)[C@@H](NC(=O)[C@H](C)NC(=O)[C@H](C)NC(=O)CCC(=O)O)C(C)C)C(C)C)C(=O)N[C@@H](Cc1ccccc1)C(=O)O [Peptide 5-Suc] (Suc-AAVALLPAVLLALLAPKENLKDCGLF-OH; C-terminus assumed)
Secretagogue (histamine secretion following incubation of mast cell with different concentrations of each peptide) ([1]; Table 1, peptide alone): +
histamine secretion from mast cells on incubation with increasing concentrations of peptide alone [1]: induced histamine secretion from mast cells in a concentration dependent manner
Inhibitor (degree of inhibition of histamine secretion from mast cells) ([2]; Table 1, incubation with different concentrations of each peptide, then induction of the allergic reaction): − (− No inhibition)

AAVALLPAVLLALLAPYLGCEKLNNK [WALL023]
histamine secretion from mast cells, peptide alone ([1]; 600 μg/ml peptide): did not result in histamine secretion
Secretagogue (histamine secretion following incubation of mast cell with different concentrations of each peptide) ([1]; Table 9, peptide alone): −
